# Results published in the NIST ThermoML archive (doi:10.1016/j.jct.2014.09.009).
# Numbers after ± are expanded uncertainties.
# Columns and labels:
# [1] = refractive index (Na D-line) (dimensionless); settings: 298.15 K; 101.33 kPa; Liquid; Standard Abbe refractometry
# [2] = 298.15 K; 101.33 kPa; Liquid; Vibrating tube method
Compound,refractive index [1],mass density [2] [kg/m3]
"COS(=O)(=O)[O-].Cn1cc[n+](C)c1 [1,3-dimethylimidazolium methylsulfate]",1.48276 ± 0.00069,1327.3 ± 3.8
CCCCn1cc[n+](C)c1.COS(=O)(=O)[O-] [1-butyl-3-methylimidazolium methyl sulfate],1.47948 ± 0.00053,1212.3 ± 2.5
CCn1cc[n+](C)c1.COS(=O)(=O)[O-] [1-ethyl-3-methylimidazolium methylsulfate],1.479 ± 0.0005,1277.4 ± 2.6
CCCCCCCCCCCC [dodecane],1.41992 ± 0.0004,745.2 ± 2.1
CCO [ethanol],1.35932 ± 0.00035,785.1 ± 2.1
CCOC(C)=O [ethyl acetate],1.36975 ± 0.00035,894.5 ± 2.1
CC(C)O [propan-2-ol],1.37499 ± 0.00035,780.9 ± 2.1
